Data on two compounds can be found in US20080287407A1, “Nitric Oxide Releasing Pyruvate Compounds, Compositions and Methods of Use” (NitroMed, Inc., priority 2003, published 2008).

A word on the melting point: it is the temperature, or range, at which the solid turns liquid. With `CC(=O)C(=O)N[C@H](CO[N+](=O)[O-])c1ccccc1` [Example 4, N-[(1S)-2-(Nitrooxy)-1-phenylethyl]-2-oxopropanamide], the melting point fell in the range of 76 to 77 °C.
The value for `CC(=O)C(=O)N[C@H](CO[N+](=O)[O-])Cc1ccccc1` [Example 5, N-[(1S)-2-(Nitrooxy)-1-benzylethyl]-2-oxopropanamide] was 72 to 75 °C.
